Laboratory results taken from US20040009485A1, “Cellular arrays for the identification of altered gene expression” (priority 2002, published 2004).

Tested on: LuxArray 1.04 E. coli strains (luxCDABE gene fusions)
Experiment: LuxArray 1.04 limonene stress of the reporter array in liquid culture
Format: cell-based
Conditions: 80% saturated limonene in LB
Procedure: Microplates from −80° C. containing the LuxArray 1.04 E. coli strains were thawed and used to inoculate 100 μl LB medium supplemented with 100 μg/ml ampicillin in Costar#3595 flat bottomed 96-well microplates. Following overnight growth at 37° C., the plates were visually examined and any wells with little or no turbidity were recorded. Then these cultures were diluted by transfer of 15 μl to 135 μl LB medium in Costar #3595, flat bottom 96-well microplates and were moderately swirl shaken on an IKA Schuttler MTS 4 shaker at setting 400 for two hrs at 37° C. in a humidified box. Twenty μl of each these actively growing cultures were transferred to the corresponding well in sets of three microplates, one containing 80 μl of LB medium, another containing 80 μl of LB medium saturated with limonene at room temperature, and the third containing 40 μl of LB medium saturated with limonene and 40 μl of LB medium. An initial (zero time) reading was taken using an MLX microplate luminometer (Dynex) pre-warmed to 37° C. Then the plates were placed at 37° C. without shaking. Additional bioluminescent measurements were taken at 45, 90, and 135 minutes. To limit the number of microplates handled each day, LuxArray 1.04 microplates 1 to 5, microplates 6 to 10, microplates 11 to 15, and microplates […] were used on each of four different days.
The data were normalized to correct for growth-inhibition caused by limonene on the basis of each individual day that data was collected. The bioluminescence (RLU) of each individual culture for each day of experimentation under each of the three conditions, were added to determine the daily array total RLU. These were used to find a daily normalization factor (DNF) as follows:
DNF=Daily total array signal(time zero, LB control)/Daily total array signal(time x, condition y)
Each measurement from the corresponding day, time point, and condition was multiplied by DNF to yield a normalized signal. The data from wells that were scored to have little or no growth were not used in further analysis. The normalized data were analyzed with GeneSpring (Silicon Genetics) software, which averaged the signal from each of the duplicate cultures for each reporter gene fusion.
Thus, patterns of gene expression from the 80% saturated limonene in LB medium were further examined. […] These lists were examined and gene fusions with very low normalized RLU values (<0.012 RLU) at all conditions were eliminated. […] The designation of “>2X” is given for upregulation while “*” is listed if the expression was less than 2 fold increased. At 45 minutes, the expression of fourteen gene fusions was increased; none of these was increased 3 fold or higher. At 90 minutes, 37 gene fusions were induced; these included all but one of the gene fusions observed at 45 minutes. […] These were fusions of the luxCDABE reporter to the promoter regions of uhpT (3.8×), nirB (3.7×) and narK (3.6×). At 135 minutes, 39 gene fusions were induced, which included 13 fusions not observed at 45 or 90 minutes.

C=C(C)[C@H]1CC=C(C)CC1 [limonene]
upregulation of gene fusion (b2451 fusion, 135 minutes): >2X (The designation of “>2X” is given for upregulation)
upregulation of gene fusion (b2550 fusion, 45 minutes): * (“*” is listed if the expression was less than 2 fold increased)
upregulation of gene fusion (b2550 fusion, 90 minutes): >2X (The designation of “>2X” is given for upregulation)
upregulation of gene fusion (b2550 fusion, 135 minutes): * (“*” is listed if the expression was less than 2 fold increased)
upregulation of gene fusion (b2699 (recA) fusion, 45 minutes): * (“*” is listed if the expression was less than 2 fold increased)
upregulation of gene fusion (b2699 (recA) fusion, 90 minutes): >2X (The designation of “>2X” is given for upregulation)
upregulation of gene fusion (b2699 (recA) fusion, 135 minutes): >2X (The designation of “>2X” is given for upregulation)
upregulation of gene fusion (b2999 fusion, 45 minutes): >2X (The designation of “>2X” is given for upregulation)
upregulation of gene fusion (b2999 fusion, 90 minutes): * (“*” is listed if the expression was less than 2 fold increased)
upregulation of gene fusion (b2999 fusion, 135 minutes): * (“*” is listed if the expression was less than 2 fold increased)
upregulation of gene fusion (b3012 fusion, 45 minutes): >2X (The designation of “>2X” is given for upregulation)
upregulation of gene fusion (b3012 fusion, 90 minutes): >2X (The designation of “>2X” is given for upregulation)
upregulation of gene fusion (b3012 fusion, 135 minutes): >2X (The designation of “>2X” is given for upregulation)
upregulation of gene fusion (b3245 fusion, 45 minutes): * (“*” is listed if the expression was less than 2 fold increased)
upregulation of gene fusion (b3245 fusion, 90 minutes): >2X (The designation of “>2X” is given for upregulation)
upregulation of gene fusion (b3245 fusion, 135 minutes): >2X (The designation of “>2X” is given for upregulation)
upregulation of gene fusion (b3267 (yhdV) fusion, 45 minutes): * (“*” is listed if the expression was less than 2 fold increased)
upregulation of gene fusion (b3267 (yhdV) fusion, 90 minutes): >2X (The designation of “>2X” is given for upregulation)
upregulation of gene fusion (b3267 (yhdV) fusion, 135 minutes): >2X (The designation of “>2X” is given for upregulation)
upregulation of gene fusion (b3336 (bfr) fusion, 45 minutes): * (“*” is listed if the expression was less than 2 fold increased)
upregulation of gene fusion (b3336 (bfr) fusion, 90 minutes): >2X (The designation of “>2X” is given for upregulation)
upregulation of gene fusion (b3336 (bfr) fusion, 135 minutes): * (“*” is listed if the expression was less than 2 fold increased)
upregulation of gene fusion (b3365 (nirB) fusion, 45 minutes): * (“*” is listed if the expression was less than 2 fold increased)
upregulation of gene fusion (b3365 (nirB) fusion, 90 minutes): >2X (The designation of “>2X” is given for upregulation)
upregulation of gene fusion (b3365 (nirB) fusion, 135 minutes): >2X (The designation of “>2X” is given for upregulation)
upregulation of gene fusion (b3419 (yhgJ) fusion, 45 minutes): * (“*” is listed if the expression was less than 2 fold increased)
upregulation of gene fusion (b3419 (yhgJ) fusion, 90 minutes): >2X (The designation of “>2X” is given for upregulation)
upregulation of gene fusion (b3419 (yhgJ) fusion, 135 minutes): >2X (The designation of “>2X” is given for upregulation)
upregulation of gene fusion (b3666 (uhpT) fusion, 45 minutes): * (“*” is listed if the expression was less than 2 fold increased)
upregulation of gene fusion (b3666 (uhpT) fusion, 90 minutes): >2X (The designation of “>2X” is given for upregulation)
upregulation of gene fusion (b3666 (uhpT) fusion, 135 minutes): >2X (The designation of “>2X” is given for upregulation)
upregulation of gene fusion (b3904 (rhaB) fusion, 45 minutes): >2X (The designation of “>2X” is given for upregulation)
upregulation of gene fusion (b3904 (rhaB) fusion, 90 minutes): >2X (The designation of “>2X” is given for upregulation)
upregulation of gene fusion (b3904 (rhaB) fusion, 135 minutes): >2X (The designation of “>2X” is given for upregulation)
upregulation of gene fusion (b3942 (katG) fusion, 45 minutes): * (“*” is listed if the expression was less than 2 fold increased)
upregulation of gene fusion (b3942 (katG) fusion, 90 minutes): >2X (The designation of “>2X” is given for upregulation)
upregulation of gene fusion (b3942 (katG) fusion, 135 minutes): >2X (The designation of “>2X” is given for upregulation)
upregulation of gene fusion (b4043 (lexA) fusion, 45 minutes): * (“*” is listed if the expression was less than 2 fold increased)
upregulation of gene fusion (b4043 (lexA) fusion, 90 minutes): >2X (The designation of “>2X” is given for upregulation)
upregulation of gene fusion (b4043 (lexA) fusion, 135 minutes): * (“*” is listed if the expression was less than 2 fold increased)
upregulation of gene fusion (b4106 (phnC) fusion, 45 minutes): >2X (The designation of “>2X” is given for upregulation)
upregulation of gene fusion (b4106 (phnC) fusion, 90 minutes): >2X (The designation of “>2X” is given for upregulation)
upregulation of gene fusion (b4106 (phnC) fusion, 135 minutes): >2X (The designation of “>2X” is given for upregulation)
upregulation of gene fusion (b4264 (yjgS) fusion, 45 minutes): * (“*” is listed if the expression was less than 2 fold increased)
upregulation of gene fusion (b4264 (yjgS) fusion, 90 minutes): >2X (The designation of “>2X” is given for upregulation)
upregulation of gene fusion (b4264 (yjgS) fusion, 135 minutes): * (“*” is listed if the expression was less than 2 fold increased)
upregulation of gene fusion (b4392 (slt) fusion, 45 minutes): >2X (The designation of “>2X” is given for upregulation)
upregulation of gene fusion (b4392 (slt) fusion, 90 minutes): >2X (The designation of “>2X” is given for upregulation)
upregulation of gene fusion (b4392 (slt) fusion, 135 minutes): * (“*” is listed if the expression was less than 2 fold increased)
upregulation of gene fusion (fold) (katG promoter fusion, 135 minutes): 4.1 ×
upregulation of gene fusion (fold) (narK promoter fusion, 90 minutes): 3.6 ×
upregulation of gene fusion (fold) (nirB promoter fusion, 90 minutes): 3.7 ×
upregulation of gene fusion (fold) (nirB promoter fusion, 135 minutes): 4.1 ×
upregulation of gene fusion (fold) (uhpT promoter fusion, 90 minutes): 3.8 ×
upregulation of gene fusion (fold) (uhpT promoter fusion, 135 minutes): 7.7 ×
